Measurements as given in patent US10058540B2, “2-amino-5,5-difluoro-6-(fluoromethyl)-6-phenyl-3,4,5,6-tetrahydropyridines as BACE1 inhibitors” (H. Lundbeck A/S, priority 2014, dated 2018).
Read-outs that look alike come from different tables or passages of the source.

Experiments:
[1] = target: T1, BACE1 (Homo sapiens (Human), UniProt P56817); assay: BACE1 efficacy assay (FRET-based, commercial BACE1 kit); type: biochemical; conditions: 10 μM test compound
Experimental: The efficacy assay was performed as a FRET-based assay using a commercially available BACE1 kit (Life Technologies, P2985). 2 μl test compound at 10 μM (final concentration) and 15 μl BACE1 enzyme from the kit (final concentration 3 nM) were preincubated for 15 minutes at room temperature before addition of 15 μl of substrate from the kit (250 nM final concentration) and incubated for additional 90 minutes at room temperature. The assay plate was subsequently read in a Pherastar (Ex540/Em590). The enzyme activity observed in presence of test compound were normalized to the enzyme activity observed in presence of buffer and 10 μM (final concentration) of the high affinity BACE1 reference inhibitor (S)-6-[3-Chloro-5-(5-prop-1-ynyl-pyridin-3-yl)-thiophen-2-yl]-2-imino-3,6-dimethyl-tetra-hydropyrimidin-4-one, respectively. The efficacy of the test compounds was evaluated at 10 μM (final concentration) and defined as the percent inhibition of the enzyme activity using the equation % inhibition=100%−normalized enzyme activity in percent.

[2] = target: T1, BACE1; assay: BACE1 binding assay (SPA-based, radioligand); conditions: pH 4.5, Ki=IC50/(1+L/Kd)
Experimental: The binding assay was performed as SPA-based assay using a biotinylated form of human BACE1 recombinantly expressed and subsequently purified from Freestyle HEK293 cells. The binding assay was run in a 50 mM sodium acetate buffer, pH 4.5 containing 50 mM NaCl and 0.03% Tween-20 in white clear bottom 384 plates (Corning #3653). 10 nM (final concentration) radioligand ([^3H]-N-((1S,2R)-1-benzyl-3-cyclopropylamino-2-hydroxy-propyl)-5-(methanesulfonyl-methyl-amino)-N-((R)-1-phenyl-ethyl)-isophthalamide) (TRQ11569 purchased from GE Healthcare) was mixed with test compound at a given concentration, 6 nM (final concentration) human BACE1 and 25 μg Streptavidin coated PVT core SPA beads (RPNQ0007, GE Healthcare Life Sciences) in a total volume of 40 μl. Several concentrations of each test compound were tested in the assay for IC50 determination. The plates were incubated for one hour at room temperature and counted in a Wallac Trilux counter. Total and non-specific binding were determined using buffer and 1 μM (final concentration) of the high affinity BACE1 reference inhibitor (S)-6-[3-chloro-5-(5-prop-1-ynyl-pyridin-3-yl)-thiophen-2-yl]-2-imino-3,6-dimethyl-tetrahydro-pyrimidin-4-one, respectively. For each test compound, a IC50 value (the concentration mediating 50% inhibition of the specific binding of the radioligand) was determined from concentration-response curve and used to calculate the Ki from the equation Ki=IC50/(1+L/Kd), where L and Kd are the final concentration of the radioligand used in the assay and the dissociation constant of the radioligand, respectively. The Kd of the radioligand was determined from saturation binding experiments.

[3] = Bioanalysis of brain and plasma samples (exposure, UPLC-MS/MS); type: in vivo, rat; conditions: male, Sprague Dawley, po, 3 hours post dose; for Kp at 3 h: brain/plasma, rat, read-out: Brain/Plasma ratio; for concentration at 3 h: read-out: Exp
Experimental: Young adult Male Sprague Dawley rats of approximately 250 g weight were purchased from Charles River and received 0-30 mg/kg of vehicle (10% HP betaCD+1M MeSO4, pH 2.5) or test compounds (dissolved in vehicle) only by oral gavage (p.o). The compounds are dosed at a volume of […]. Cohorts of 5-10 animals were established for each treatment condition.
At T=180 minutes after initial dosing the animals were stunned and decapitated with a guillotine. Trunk-blood was sampled in EDTA coated tubes after decapitation of the animal. The blood was centrifuged at 2200 G at 4° C. for 15 minutes and the plasma was collected and frozen at −80° C. The blood was aliquoted for Aβ ELISA and DMPK analysis. Immediately following sacrifice, the brain was extracted and split into 2 halves. The right hemibrains were snap frozen on dry ice and stored at −80° C. The left half was dissected; with the front forebrain taken for Aβ ELISA and the remainder used for DMPK analysis. These samples were also snap frozen on dry ice and stored at −80° C. until use for analysis.
TC was determined in plasma and brain homogenate using UltraPerformance LC® (UPLC®) chromatography followed by tandem-MS (MS/MS) detection.
Brain homogenate was prepared by homogenizing the brain 1:4 (v/v) with water:2-propanol:DMSO (50:30:20 v/v/v) followed by centrifugation and collection of the supernatant. Calibration standards and QC samples were prepared using a Hamilton robot. 150 μL of ISTD in acetonitrile (1 ng/mL ISTD) was added to 25 μL of calibration standards, QC samples and test samples (plasma and brain homogenate) using a Biomek robot. After centrifugation (6200 g, 4° C., 20 min) 100 μL supernatant from each sample was transferred to a new plate and mixed with 100 μL water with 0.1% formic acid using a Biomek robot (method file InVivo transfer). After a quick centrifugation (6200 g, 4° C., 5 min) the samples were placed in the auto-sampler.
MS/MS detection was done with an Applied Biosystems Sciex API 4000 instrument in positive-ion electrospray ionisation mode. TC and ISTD were detected at a parent>daughter mass to charge ratio (m/z). Nitrogen was used for the nebulizer and collision gases. The peak area correlated linearly with the plasma and brain concentration of the analytes in the range of 1.00-1000 ng/mL plasma and 5.00-5000 ng/g brain (corrected for dilution). If the plasma/brain sample drug concentration was above 1000 ng/mL or 5000 ng/g, the sample was diluted appropriately in blank plasma/blank brain homogenate before analysis.
• Waters Acquity UPLC HSS C18 SB (pH 2-8) 1.8 μm, 2.1×30 mm. • Mobile phase A: 0.1% aq. formic acid or 0.1% aq. ammonium hydroxide • Mobile phase B: Acetonitrile with 0.1% aq. formic acid or 0.1% aq. ammonium hydroxide. • Weak wash: Methanol • Strong wash: Acetonitrile/Isopropanol/formic acid (50/50/2 v/v/v) • Flow: 0.6 mL/min • Run time: 3 min. • To waste: 0-0.5 min • Temperature: 40° C. Gradient: […]
Compounds 11 and 15 were administered at doses of 10 mg/kg p.o. and brain and plasma samples were collected at 3 hours post dose and the following exposures were measured as described above.

T1 sequence (P56817 46-501): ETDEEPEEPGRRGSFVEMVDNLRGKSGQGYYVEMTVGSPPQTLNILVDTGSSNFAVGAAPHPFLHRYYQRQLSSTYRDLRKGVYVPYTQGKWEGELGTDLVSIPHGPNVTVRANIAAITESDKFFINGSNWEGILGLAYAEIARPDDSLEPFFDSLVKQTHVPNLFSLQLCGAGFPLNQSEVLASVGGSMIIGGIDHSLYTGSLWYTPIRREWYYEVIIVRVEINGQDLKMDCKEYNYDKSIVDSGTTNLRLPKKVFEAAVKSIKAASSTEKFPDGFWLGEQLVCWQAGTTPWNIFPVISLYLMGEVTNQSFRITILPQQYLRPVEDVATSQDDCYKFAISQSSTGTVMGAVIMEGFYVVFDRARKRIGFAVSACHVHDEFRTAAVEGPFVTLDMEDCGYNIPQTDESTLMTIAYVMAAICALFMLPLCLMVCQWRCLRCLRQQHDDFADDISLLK

- inhibition at 10 µM [1]: 103%
- Ki [2]: 14 nM
- Kp at 3 h ([3]; 10 mg/kg p.o.): 1.8
- Kp at 3 h ([3]; 30 mg/kg p.o.): 1.3
- concentration at 3 h ([3]; rat brain, 10 mg/kg p.o.): 1760 ng/g
- concentration at 3 h ([3]; rat brain, 30 mg/kg p.o.): 4210 ng/g
- concentration at 3 h ([3]; rat plasma, 10 mg/kg p.o.): 1120 ng/g
- concentration at 3 h ([3]; rat plasma, 30 mg/kg p.o.): 3290 ng/g
Compound: COc1cnc(C(=O)Nc2cc(F)c(F)c([C@@]3(CF)N=C(N)CCC3(F)F)c2)cn1 [Compound 11, (S)-N-(3-(6-amino-3,3-difluoro-2-(fluoromethyl)-2,3,4,5-tetrahydropyridin-2-yl)-4,5-difluorophenyl)-5-methoxypyrazine-2-carboxamide]
